The source of these data is patent US20230391772A1, “METHODS AND COMPOSITIONS FOR TARGETED PROTEIN DEGRADATION” (Ranok Therapeutics (Hangzhou) Co. Ltd., priority 2020, published 2023).

The test system of assay [1] is MIA PaCa-2 human pancreatic carcinoma. The assay can be described thus: MIA PaCa-2 CCK-8 proliferation assay. As to conditions: Homo sapiens, MIA PaCa-2, 72 h, MIA PaCa-2 cells. It is filed as cell-based. Put shortly:
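Compounds were tested as a 3-fold series from 20 μM down to 1.02 nM in CCK-8 absorbance assays. The lines used were NCI-H23 and NCI-H358, each with 1 KRAS(G12C) copy, and MIA PaCa-2 with 2 copies. Inhibition was derived relative to DMSO controls, with a no-cell blank subtracted.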
For orientation: Formazan colour is commonly taken as a measure of viable cells.

For assay [2], the target named is T1, KRAS(G12C) (Homo sapiens, UniProt P01116, G12C). The assay can be described thus: KRAS(G12C)/SOS1 homogeneous time-resolved fluorescence (HTRF) assay. Details: purchased Cisbio 63ADK000CB16PEG. As to conditions: absence of GTP, 4° C. for 3 hr, read-out: KRAS (G12C) binding. Put shortly: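 Three-hour incubation at 4 °C of 3-fold compound dilutions (lowest 1.02 nM) with KRAS(G12C), SOS1 and detection reagents, GTP absent. Disruption of the KRAS(G12C)/SOS1 complex detected by time-resolved fluorescence.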
T1 sequence (P01116 1-188 isoform P01116-2 G12C): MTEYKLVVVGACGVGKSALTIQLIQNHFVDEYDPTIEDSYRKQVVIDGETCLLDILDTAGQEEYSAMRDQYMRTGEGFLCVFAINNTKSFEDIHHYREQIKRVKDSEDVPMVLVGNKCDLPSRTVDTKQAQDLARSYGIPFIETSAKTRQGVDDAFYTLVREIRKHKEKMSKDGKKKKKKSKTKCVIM
In general terms: TR-FRET usually uses a lanthanide donor and a delayed reading to cut background.

Assay [3] addresses T1, KRAS(G12C). The assay can be described thus: KRAS(G12C) Western blot protein degradation assay in LU65A cells. It is filed as cell-based. Details: LU65A human lung cancer cell line, which expresses KRAS(G12C); host or cells: LU65A. The following applies: 6 hr. How it is done:
The following cancer cell lines were employed: BT-474 human breast carcinoma (ATCC, #HTB-20); MIA PaCa-2 human pancreatic carcinoma [2 copies KRAS(G12C)](ATCC, #CRL-1420); NCI-H23 human non-small cell lung cancer [1 copy KRAS(G12C)](ATCC, #CRL-5800); NCI-H358 human non-small cell lung cancer [1 copy KRAS(G12C)](ATCC, #CRL-5807); LU65A human lung carcinoma (Pharmaron, Beijing, China). Cell lines were cultured essentially according to ATCC and Pharmaron recommendations.
KRAS(G12C) Western Blot Protein Degradation Assay
The MIA PaCa-2 human pancreatic carcinoma cell line and LU65A human lung cancer cell line, which expresses KRAS(G12C), were seeded in 6- or 12-well tissue culture plates, and after 1 hr, test compounds were added at various concentrations and incubated at 37° C./5% CO2 for 48 hr (MIA Paca-2) and 6 hr (LU65A) respectively. Cells were then washed with cold PBS, aspirated and cold RIPA buffer containing a protease/phosphatase inhibitor cocktail was added to lyse cells. After centrifugation, the total protein concentrations of cell lysates were determined using the BCA protein assay. Samples were normalized for equivalent protein concentrations, 5×SDS-PAGE loading buffer added and denatured at 100° C. for 10 min. 20 μl of each sample/well was loaded on a SDS-PAGE gel and electrophoresed for 20 min at 80 V, then 120 V for 1.5 hr. Gels were then electroblotted to nitrocellulose membranes using a wet-transfer method at 250 mA for 2.5 hr. Membranes were incubated with blocking buffer for 1 hr and washed 3 times with TBST for 5 min. Membranes were then incubated with anti-KRAS (Sigma-Aldrich, #SAB1404011) and anti-β-Actin monoclonal antibodies (Cell Signaling Technology, #3700) diluted in blocking buffer at 4° C. overnight per the manufacturer's recommendations. After washing 3 times, blots were incubated with appropriately labeled secondary antibodies for 1 hr at room temperature and washed again. Fluorescence imaging and quantitation was performed using a LI-COR Odyssey. Results was analyzed using GraphPad Prism 7 software. Compound degradation of was determined by the following equation and DC50 values (the concentration at which 50% of the maximal degradation of KRAS occurs) calculated using GraphPad Prism 7 software:
% Inhibition=100−(D−B)/(S−B)*100%. • S: Fluorescence intensity of cells with antibody • D: Fluorescence intensity of compound-treated cells with antibody • B: Fluorescence intensity of cells without antibody
(Immunoblotting shows a protein as a band on a membrane.)

On to `C=CC(=O)N1CCN(c2nc(OC[C@@H]3C[C@@H](N(C)C(=O)C4CCN(Cc5ccc(-n6c(C(=O)NCC(F)(F)F)nnc6-c6cc(C(C)C)c(O)cc6O)cc5)CC4)CN3C)nc3c2CCN(c2cccc4cccc(Cl)c24)C3)C[C@@H]1CC#N` [Compound 235, N-((3R,5S)-5-(((4-((S)-4-acryloyl-3-(cyanomethyl)piperazin-1-yl)-7-(8-chloronaphthalen-1-yl)-5,6,7,8-tetrahydropyrido[3,4-d]pyrimidin-2-yl)oxy)methyl)-1-methylpyrrolidin-3-yl)-1-(4-(3-(2,4-dihydroxy-5-isopropylphenyl)-5-((2,2,2-trifluoroethyl)carbamoyl)-4H-1,2,4-triazol-4-yl)benzyl)-N-methylpiperidine-4-carboxamide], for which the EC50 (in general, the concentration needed to bring the measured effect to its halfway point) in assay [1] lay in the range of 0.1 to 1 µM. Moreover, the IC50 at KRAS(G12C) [2] lay in the range of 0.1 to 1 µM. Further, the DC50 (commonly the midpoint of the concentration-degradation curve) at KRAS(G12C) [3] was greater than 1 µM.
Consider `C=CC(=O)N1CCN(c2nc(OCCN3CCC(N4CCN(Cc5ccc(-n6c(O)nnc6-c6cc(C)c(O)cc6O)cc5)CC4)CC3)nc3c2CCN(c2cccc4cccc(Cl)c24)C3)C[C@@H]1CC#N` [Compound 236, (S)-2-(1-acryloyl-4-(7-(8-chloronaphthalen-1-yl)-2-(2-(4-(4-(4-(3-(2,4-dihydroxy-5-methylphenyl)-5-hydroxy-4H-1,2,4-triazol-4-yl)benzyl)piperazin-1-yl)piperidin-1-yl)ethoxy)-5,6,7,8-tetrahydropyrido[3,4-d]pyrimidin-4-yl)piperazin-2-yl)acetonitrile], for which the EC50 in assay [1] was greater than 1 µM. Besides, the IC50 on KRAS(G12C) [2] is less than 0.1 µM. On KRAS(G12C) [3], this compound came in with a DC50 greater than 1 µM.
`C=CC(=O)N1CCN(c2nc(OCCN3CCC(N4CCN(Cc5ccc(-n6c(O)nnc6-c6cc(C(C)C)c(O)cc6O)cc5)CC4)CC3)nc3c2CCN(c2cccc4cccc(Cl)c24)C3)C[C@@H]1CC#N` [Compound 237, (S)-2-(1-acryloyl-4-(7-(8-chloronaphthalen-1-yl)-2-(2-(4-(4-(4-(3-(2,4-dihydroxy-5-isopropylphenyl)-5-hydroxy-4H-1,2,4-triazol-4-yl)benzyl)piperazin-1-yl)piperidin-1-yl)ethoxy)-5,6,7,8-tetrahydropyrido[3,4-d]pyrimidin-4-yl)piperazin-2-yl)acetonitrile] came in with an EC50 in assay [1] of 0.1 to 1 µM. Moreover, the IC50 on KRAS(G12C) [2] lay within 0.1 to 1 µM. The DC50 on KRAS(G12C) [3] is greater than 1 µM.
The compound `C=CC(=O)N1CCN(c2nc(OC[C@@H]3CC[C@H](CN4CCN(C(=O)C5CCN(Cc6ccc(-n7c(C(=O)NCC)nnc7-c7cc(C(C)C)c(O)cc7O)cc6)CC5)CC4)N3C)nc3c2CCN(c2cccc4cccc(Cl)c24)C3)C[C@@H]1CC#N` [Compound 240, 4-(4-{[4-(4-{[(2R,5S)-5-({[7-(8-chloronaphthalen-1-yl)-4-[(3S)-3-(cyanomethyl)-4-(prop-2-enoyl)piperazin-1-yl]-5H,6H,8H-pyrido[3,4-d]pyrimidin-2-yl]oxy}methyl)-1-methylpyrrolidin-2-yl]methyl}piperazine-1-carbonyl)piperidin-1-yl]methyl}phenyl)-5-(2,4-dihydroxy-5-isopropylphenyl)-N-ethyl-1,2,4-triazole-3-carboxamide] came in with an EC50 in assay [1] of less than 0.1 µM. Moreover, the IC50 at KRAS(G12C) [2] is less than 0.1 µM. At KRAS(G12C) [3], this compound displayed a DC50 of 0.1 to 1 µM.
As to `C=CC(=O)N1CCN(c2nc(OC[C@@H]3C[C@H](N4CCN(Cc5ccc(-n6c(O)nnc6-c6cc(C(C)C)c(O)cc6O)cc5)CC4)CN3C)nc3c2CCN(c2cccc4cccc(Cl)c24)C3)C[C@@H]1CC#N` [Compound 241, 2-[(2S)-4-[7-(8-chloronaphthalen-1-yl)-2-{[(2S,4S)-4-[4-({4-[3-(2,4-dihydroxy-5-isopropylphenyl)-5-hydroxy-1,2,4-triazol-4-yl]phenyl}methyl)piperazin-1-yl]-1-methylpyrrolidin-2-yl]methoxy}-5H,6H,8H-pyrido[3,4-d]pyrimidin-4-yl]-1-(prop-2-enoyl)piperazin-2-yl]acetonitrile], in assay [1], the concentration for a half-maximal effect (EC50) lay within 0.1 to 1 µM. In addition, the IC50 on KRAS(G12C) [2] is less than 0.1 µM. This compound also yielded a DC50 at KRAS(G12C) [3] greater than 1 µM.
`C=CC(=O)N1CCN(c2nc(OCCN3CCN(C(=O)C4CCN(Cc5ccc(-n6c(C(N)=O)nnc6-c6cc(C(C)C)c(O)cc6O)cc5)CC4)C[C@@H]3CN(C)C)nc3c2CCN(c2cccc4cccc(Cl)c24)C3)C[C@@H]1CC#N` [Compound 260, 4-(4-((4-((S)-4-(2-((4-((S)-4-acryloyl-3-(cyanomethyl)piperazin-1-yl)-7-(8-chloronaphthalen-1-yl)-5,6,7,8-tetrahydropyrido[3,4-d]pyrimidin-2-yl)oxy)ethyl)-3-((dimethylamino)methyl)piperazine-1-carbonyl)piperidin-1-yl)methyl)phenyl)-5-(2,4-dihydroxy-5-isopropylphenyl)-4H-1,2,4-triazole-3-carboxamide] showed an EC50 in assay [1] of less than 0.1 µM. The compound also returned a DC50 on KRAS(G12C) [3] greater than 1 µM.
`C=CC(=O)N1CCN(c2nc(OC[C@@H]3C[C@H](N4CCN(Cc5ccc(-n6c(O)nnc6-c6cc(C)c(O)cc6O)cc5)CC4)CN3C)nc3c2CCN(c2cccc4ccccc24)C3)C[C@@H]1CC#N` [Compound 270, 2-[(2S)-4-(2-{[(2S,4S)-4-[4-({4-[3-(2,4-dihydroxy-5-methylphenyl)-5-hydroxy-1,2,4-triazol-4-yl]phenyl}methyl)piperazin-1-yl]-1-methylpyrrolidin-2-yl]methoxy}-7-(naphthalen-1-yl)-5H,6H,8H-pyrido[3,4-d]pyrimidin-4-yl)-1-(prop-2-enoyl)piperazin-2-yl]acetonitrile] had an EC50 in assay [1] greater than 1 µM. Also, the DC50 on KRAS(G12C) [3] is 0.1 to 1 µM.
In assay [1], `C=CC(=O)N1CCN(c2nc(OC[C@@H]3C[C@H](N4CCN(Cc5ccc(-n6c(C(=O)NCC)nnc6-c6cc(C(C)C)c(O)cc6O)cc5)CC4)CN3C)nc3c2CCN(c2cccc4ccccc24)C3)C[C@@H]1CC#N` [Compound 271, 4-[4-({4-[(3S,5S)-5-[({4-[(3S)-3-(cyanomethyl)-4-(prop-2-enoyl)piperazin-1-yl]-7-(naphthalen-1-yl)-5H,6H,8H-pyrido[3,4-d]pyrimidin-2-yl}oxy)methyl]-1-methylpyrrolidin-3-yl]piperazin-1-yl}methyl)phenyl]-5-(2,4-dihydroxy-5-isopropylphenyl)-N-ethyl-1,2,4-triazole-3-carboxamide] yielded an EC50 of 0.1 to 1 µM. The DC50 on KRAS(G12C) [3] fell in the range of 0.1 to 1 µM.
`C=CC(=O)N1CCN(c2nc(OC[C@@H]3CC[C@H](CN4CCN(Cc5ccc(-n6c(O)nnc6-c6cc(C(C)C)c(O)cc6O)cc5)CC4)N3C)nc3c2CCN(c2cccc4ccccc24)C3)C[C@@H]1CC#N` [Compound 272, 2-[(2S)-4-(2-{[(2S,5R)-5-{[4-({4-[3-(2,4-dihydroxy-5-isopropylphenyl)-5-hydroxy-1,2,4-triazol-4-yl]phenyl}methyl)piperazin-1-yl]methyl}-1-methylpyrrolidin-2-yl]methoxy}-7-(naphthalen-1-yl)-5H,6H,8H-pyrido[3,4-d]pyrimidin-4-yl)-1-(prop-2-enoyl)piperazin-2-yl]acetonitrile]: in assay [1], the EC50 is less than 0.1 µM. The 50% degradation concentration (DC50) at KRAS(G12C) [3] was less than 0.1 µM.
`C=CC(=O)N1CCN(c2nc(OC[C@@H]3CC[C@H](CN4CCN(Cc5ccc(-n6c(O)nnc6-c6cc(C(C)C)c(O)cc6O)cc5)CC4)N3C)nc3c2CCN(c2cccc4cccc(C)c24)C3)C[C@@H]1CC#N` [Compound 273, 2-[(2S)-4-(2-{[(2S,5R)-5-{[4-({4-[3-(2,4-dihydroxy-5-isopropylphenyl)-5-hydroxy-1,2,4-triazol-4-yl]phenyl}methyl)piperazin-1-yl]methyl}-1-methylpyrrolidin-2-yl]methoxy}-7-(8-methylnaphthalen-1-yl)-5H,6H,8H-pyrido[3,4-d]pyrimidin-4-yl)-1-(prop-2-enoyl)piperazin-2-yl]acetonitrile] returned an EC50 in assay [1] of 0.1 to 1 µM. This compound showed a DC50 at KRAS(G12C) [3] of 0.1 to 1 µM.
